IC50 data for ten compounds are collected here from patent US5679671A, “Amino acid derivative” (Eisai Co., Ltd., priority 1993, dated 1997).

Holding throughout (type): biochemical
For assay [1], the target named is T1, NEP (Rattus norvegicus, UniProt P07861).
T1 sequence (P07861 1-750): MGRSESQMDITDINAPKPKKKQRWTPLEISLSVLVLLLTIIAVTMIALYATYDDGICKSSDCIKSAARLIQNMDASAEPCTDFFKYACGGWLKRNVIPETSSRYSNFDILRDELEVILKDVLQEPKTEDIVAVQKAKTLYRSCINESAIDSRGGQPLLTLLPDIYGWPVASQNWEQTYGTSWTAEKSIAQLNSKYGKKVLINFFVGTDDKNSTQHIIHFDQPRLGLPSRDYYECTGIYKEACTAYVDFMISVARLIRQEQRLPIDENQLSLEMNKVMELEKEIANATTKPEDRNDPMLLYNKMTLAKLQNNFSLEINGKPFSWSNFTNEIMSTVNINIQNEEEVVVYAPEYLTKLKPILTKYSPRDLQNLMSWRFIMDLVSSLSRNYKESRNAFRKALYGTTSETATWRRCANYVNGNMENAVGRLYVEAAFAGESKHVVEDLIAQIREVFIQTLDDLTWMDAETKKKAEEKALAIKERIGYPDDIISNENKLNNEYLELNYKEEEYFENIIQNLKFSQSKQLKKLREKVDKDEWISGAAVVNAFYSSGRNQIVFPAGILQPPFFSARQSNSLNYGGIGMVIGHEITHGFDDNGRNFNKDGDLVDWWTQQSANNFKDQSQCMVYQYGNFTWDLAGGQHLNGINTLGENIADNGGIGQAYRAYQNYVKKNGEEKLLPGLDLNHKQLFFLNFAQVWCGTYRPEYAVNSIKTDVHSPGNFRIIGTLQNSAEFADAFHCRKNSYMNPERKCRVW
Put plainly: NEP inhibition activity (Experiment C-1). The following applies: Table C-1. As to the method: The NEP activity was determined by the following manner in accordance with the method of Orlowsky and Wilk (Purification and Specificity of a Membrane-Bound Metalloendpeptidase from Bovine Pituitaries., Marian Orlowsky and Shrwin Wilk, Biochemistry, 1981, 20, 4942-4950.).
(§1) As a substrate, benzoyl-glycyl-arginyl-arginyl-2-naphthylamide (benzoyl-Gly-Arg-Arg-2-naphthylamide (Nova Biochem, Switzerland)) was used. In the presence of an NEP enzyme preparation and excessive leucine aminopeptidase (sigma chemical Co., U.S.A.), the liberated naphthylamine was made to undergo color development with first garnet (Sigma chemical Co., U.S.A.), followed by the measurement of the absorbance at a wavelength of 540 nm.
With respect to the NEP inhibition activity, the test compound was added to the experimental system as described above in such a manner as to give the final concentrations of 1, 3, 10, 30, 100, 300 and 1000 nM, an inhibition curve was prepared, and then the concentration at which 50% inhibition was achieved was taken as IC50. As a comparative compound, [4S-[4α,7α(R*),12bβ]]-7-[(1-oxo-2-(S)-thio-3-phenyl-propyl)amino]-1,2,3,4,6,7,8,12b-octahydro-6-oxopyrido-[2,1-a][2]benzazepine-4-carboxylic acid was used.

For assay [2], the target named is T2, ACE (Rattus norvegicus, UniProt P47820).
T2 construct: membrane fraction prepared from rat lung; from tissue; host or cells: rat lung, membrane fraction (method of Wu-Wong et al.)
T2 sequence (P47820 36-1313): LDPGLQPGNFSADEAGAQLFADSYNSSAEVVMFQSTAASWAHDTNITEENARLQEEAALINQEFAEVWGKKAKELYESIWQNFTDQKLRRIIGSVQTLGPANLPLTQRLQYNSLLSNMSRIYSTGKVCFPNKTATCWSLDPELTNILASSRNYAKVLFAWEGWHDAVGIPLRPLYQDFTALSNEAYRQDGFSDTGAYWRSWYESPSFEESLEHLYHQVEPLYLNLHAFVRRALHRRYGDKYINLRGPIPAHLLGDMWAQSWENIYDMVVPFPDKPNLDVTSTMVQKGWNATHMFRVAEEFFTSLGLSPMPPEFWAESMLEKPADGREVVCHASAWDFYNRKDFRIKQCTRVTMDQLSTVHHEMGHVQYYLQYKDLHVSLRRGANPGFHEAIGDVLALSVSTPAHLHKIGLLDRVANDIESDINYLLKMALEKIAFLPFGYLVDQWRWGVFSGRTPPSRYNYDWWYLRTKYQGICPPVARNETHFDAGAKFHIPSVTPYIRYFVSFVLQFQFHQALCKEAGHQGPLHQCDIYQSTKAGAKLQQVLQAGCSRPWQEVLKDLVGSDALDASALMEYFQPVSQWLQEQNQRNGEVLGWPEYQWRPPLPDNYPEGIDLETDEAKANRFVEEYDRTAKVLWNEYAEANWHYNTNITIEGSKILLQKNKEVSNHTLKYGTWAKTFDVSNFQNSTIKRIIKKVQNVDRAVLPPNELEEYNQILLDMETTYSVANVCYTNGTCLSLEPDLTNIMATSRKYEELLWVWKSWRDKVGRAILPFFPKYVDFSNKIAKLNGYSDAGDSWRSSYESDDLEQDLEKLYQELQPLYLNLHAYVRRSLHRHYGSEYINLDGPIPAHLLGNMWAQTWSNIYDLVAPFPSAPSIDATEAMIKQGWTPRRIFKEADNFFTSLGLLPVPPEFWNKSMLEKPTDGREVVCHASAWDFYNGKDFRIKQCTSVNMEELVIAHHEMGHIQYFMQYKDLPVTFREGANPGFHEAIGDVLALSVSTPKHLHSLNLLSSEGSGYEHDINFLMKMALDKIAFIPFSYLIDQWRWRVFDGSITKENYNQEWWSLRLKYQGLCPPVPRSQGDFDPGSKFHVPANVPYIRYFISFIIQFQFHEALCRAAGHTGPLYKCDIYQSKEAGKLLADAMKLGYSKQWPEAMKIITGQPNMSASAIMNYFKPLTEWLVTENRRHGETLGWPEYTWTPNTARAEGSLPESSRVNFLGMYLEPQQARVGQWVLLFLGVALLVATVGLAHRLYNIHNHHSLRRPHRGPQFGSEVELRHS
Put plainly: ACE inhibition activity using rat lung (Experiment C-2). To be noted: Table C-1; rat lung membrane fraction, borate buffer pH 8.3. The method, then: The ACE inhibition activity was determined by using a membrane fraction prepared from rat lung in accordance with the method of Wu-Wong et al. (Characterization of Endthelin Converting Enzyme in Rat Lung., Junshyum R. Wu-Wong, Gerald P. Budzik, Edward M. Devine and Terry J. Opgenorth, Biochem. Biophys. Res. Commun., 1990, 171, 1291-1296.).
The ACE activity was determined with the use of a modification (modified to a borate buffer, pH 8.3) of the method of Cushman and Cheung (Spectrophotometric Assay and Properties of the Angiotensin-Converting Enzyme of Rabbit Lung., Cushman D. W. and Cheung H. S., 1971, 20, 1637-1648.).
In the presence of ACE, the hippurate liberated from hippuryl-histidyl-leucine (Hippuryl-His-Leu (PeptideInstitute Inc., Japan)) was extracted with ethyl acetate and then the absorbance was measured at a wavelength of 228 nm.
With respect to the ACE inhibition activity, the test compound was added to the reaction system as described above in such a manner as to give the final concentrations of 1, 3, 10, 30, 100, 300 and 1000 nM, an inhibition curve was prepared, and then the concentration at which 50% inhibition was achieved was taken as IC50. As a comparative compound, [4S-[4α,7α(R*),12bβ]]-7-[(1-oxo-2-(S)-thio-3-phenyl-propyl)amino]-1,2,3,4,6,7,8,12b-octahydro-6-oxopyrido-[2,1-a][2]benzazepine-4-carboxylic acid was used.

The target in assay [3] is T2, ACE. Put plainly: ACE inhibition activity (Experiment F-1). The following applies: rat lung membrane fraction, pH 8.3. As to the method:
As a source of the enzyme ACE, a membrane fraction prepared from rat lung in accordance with the method of Wu-Wong et al. (Characterization of Endthelin Converting Enzyme in Rat Lung., Jinshyum R. Wu-Wong, Gerald P. Budzik, Edward M, Devine and Terry J. Opgenorth, Biochem. Biophys. Res. Commun., 1990, 171, 1291-1296.) was used. The ACE activity was determined with the use of a modification (modified to a borate buffer pH 8.3) of the method of Cushman and Cheung (Spectrophotometric Assay and Properties of the Angiotensin-Converting Enzyme of Rabbit Lung., Cushman D. W. and Cheung H. S., 1971, 20, 1637-1648.). Now the procedure will be briefly described.
In the presence of ACE, the hippurate liberated from hippuryl-histidyl-leucine (Hippuryl-His-Leu (Peptide Institute Inc., Japan)) was extracted with ethyl acetate and then the absorbance was measured at a wavelength of 228 nm.
(§2) With respect to the NEP inhibition activity and the ACE inhibition activity, the inhibitor was added to the assay systems of both enzyme activities as described above in such a manner as to give the final concentrations of 1, 3, 10, 30, 100, 300 and 1000 inhibition curves were prepared, and then the concentration at which 50% inhibition was achieved was taken as IC50.

In assay [4] the target is T1, NEP. Put plainly: NEP inhibition activity (Experiment F-1). To be noted: rat renal cortex membrane fraction. Details: membrane fraction prepared from rat renal cortex; from tissue; host or cells: rat renal cortex, membrane fraction (method of Booth and Kenny). The method, then:
As a source of the enzyme NEP, a membrane fraction prepared from rat renal cortex in accordance with the method of Booth and Kenny (A Rapid Method for the Purification of Microvilli from Rabbit Kidney., Andrew G. Booth and A. John Kenny, Biochem. j., 1974, 142, 575-581.) was employed. The NEP activity was determined in accordance with the method of Orlowsky and Wilk (Purification and Specificity of a Membrane-Bound Metalloendpeptidase from Bovine Pituitaries., Marian Orlowsky and Shrwin Wilk, Biochemistry, 1981, 20, 4942-4950.). Now the procedure will be briefly described.
as §1, §2

The structures appear in SMILES notation.

Broadly, the IC50 is the concentration needed to halve the response being measured. A low value points to inhibition by little substance. With `CC[C@H](C)[C@H](S)C(=O)N[C@H]1CSc2ccccc2N(CC(=O)O)C1=O` [Example C-12, (R)-3-[[(2S,3S)-3-Methyl-1-oxo-2-thiopentyl]amino]-5-carboxymethyl-2,3-dihydro-1,5-benzothiazepin-4(5H)-one], the IC50 came to 15.1 nM against NEP [1] and 12.5 nM on ACE [2].

As for `O=C(O)CNC(=O)[C@@H](CS)Cc1ccc2c(c1)OCO2` [Comp cpd. F-1, N[1oxo-2(S)-mercaptomethyl-3-(3,4-methylenedioxy-phenyl)propyl]glycine, reference compound], the concentration for half-maximal inhibition (IC50) was 48 nM at ACE [3] and 17.1 nM against NEP [4].

`O=C(N[C@H]1CCC[C@H]2SC[C@@H](C(=O)O)N2C1=O)[C@@H](S)Cc1ccc(-c2ccccc2)cc1` [Example F-20, [3R-[3α,6α(S*),9aβ]]-6-[[(S)-1-Oxo-2-thio-3-(1,4-biphenyl)propyl]amino]-octahydro-5-oxothiazol[3,2-a]azepine3-carboxylic acid]: the IC50 at ACE [3] is 16 nM; on NEP [4] it was 56.5 nM.

With `O=C(N[C@H]1CCC[C@H]2SC[C@@H](C(=O)O)N2C1=O)[C@@H](S)Cc1cccs1` [Example F-22, [3R-[3α,6α(S*),9aβ]]-6-[[(S)-1-Oxo-2-thio-3-(2-thienyl)propyl]amino]-octahydro-5-oxothiazol-[3,2-a]azepine-3-carboxylic acid], the IC50 worked out at 13 nM against ACE [3] and 9 nM against NEP [4].

Turning to `CC(C)[C@H](S)C(=O)N[C@H]1CCC[C@H]2SC[C@@H](C(=O)O)N2C1=O` [Example F-25, [3R-[3α,6α(S*),9aβ]]-6-[(S)-1-Oxo-2-thio-3-methylbutylamino]-octahydro-5-oxothiazol[3,2-a]azepine-3-carboxylic acid], the IC50 at ACE [3] amounted to 9 nM; on NEP [4], 265 nM.

For `O=C(N[C@H]1CCC[C@H]2SC[C@@H](C(=O)O)N2C1=O)[C@@H](S)Cc1ccc(F)cc1` [Example F-14, [3R-[3α,6α(S*),9aβ]]-6[[(S)-1-Oxo-2-thio-3-(4-fluorophenyl)propyl]amino]-octahydro-5-oxothiazol [3,2-a]azepine-3-carboxylic acid], the IC50 on ACE [3] turned out to be 7.7 nM; against NEP [4], 22.5 nM.

On to `COc1ccc(C[C@H](S)C(=O)N[C@H]2CCC[C@H]3SC[C@@H](C(=O)O)N3C2=O)cc1` [Example F-19, [3R-[3α,6α(S*),9aβ]]-6-[[(S)-1-Oxo-2-thio-3-(4-methoxyphenyl)propyl]amino]-octahydro-5-oxothiazol-[3,2-a]azepine-3-carboxylic acid], for which the IC50 against ACE [3] was 13.5 nM; on NEP [4], 104 nM.

On to `CC[C@@H](C)[C@H](S)C(=O)N[C@H]1CCC[C@H]2SC[C@@H](C(=O)O)N2C1=O` [Example F-23, [3R-[3α,6α(S*),9aβ]]-6-[[(S, 3R)-1-Oxo-2-thio-3-methylpentylamino]-octahydro-5-oxothiazol-[3,2-a]azepine-3-carboxylic acid], for which the IC50 on ACE [3] was found to be 8 nM; against NEP [4] it was 120 nM.

As to `CC[C@H](S)C(=O)N[C@H]1CCC[C@H]2SC[C@@H](C(=O)O)N2C1=O` [Example F-24, [3R-[3α,6α(S*),9aβ]]-6-[(S)-1-Oxo-2-thiobutylamino]-octahydro-5-oxothiazol[3,2-a]azepine-3-carboxylic acid], the figures for the IC50 against ACE [3] and against NEP [4] were 13 nM and 8 nM, respectively.

Consider `O=C(N[C@H]1CCC[C@H]2SC[C@@H](C(=O)O)N2C1=O)[C@@H](CS)Cc1ccccc1` [Example F-18, [3R-[3α,6α(S*),9aβ]]-6-[[(S)-1-Oxo-2-thiomethyl-3-phenylpropyl]amino]-octahydro-5-oxothiazol[3,2-a]-azepine-3-carboxylic acid], for which the figures for the IC50 against ACE [3] and at NEP [4] were 7 nM and 5.6 nM, respectively.
